Biological target: Protein farnesyltransferase (Homo sapiens, UniProt P49354+P49356)
Test: Inhibitory activity against K-Ras farnesyl transferase
Assay type: protein-complex assay

SMILES | IC50 [nM]
N#Cc1ccc(Cn2cncc2CN(Cc2ccc(F)cc2F)C(=O)c2ccc3ccccc3n2)cc1 | 187
N#Cc1ccc(Cn2cnnc2CN(C(=O)c2ccc3ccccc3n2)c2ccc(Oc3ccccc3)cc2)cc1 | 44
N#Cc1ccc(Cn2nnnc2CN(Cc2ccc(F)cc2F)C(=O)c2ccc3ccccc3n2)cc1 | > 1000
COc1cc(C(=O)N(CCc2ccc(Br)cc2)Cc2nncn2Cc2ccc(C#N)cc2)nc2ccccc12 | 96.5
COc1ccc(CCN(Cc2nncn2Cc2ccc(C#N)cc2)C(=O)c2ccc3ccccc3n2)cc1 | 75
N#Cc1ccc(Cn2cnnc2CN(CCc2ccc(Br)cc2)C(=O)c2ccco2)cc1 | 99.3
N#Cc1ccc(Cn2cnnc2CN(CCc2ccc(Br)cc2)C(=O)c2cc3ccccc3o2)cc1 | 53.2
N#Cc1ccc(Cn2cnnc2CN(CCc2ccc(Br)cc2)C(=O)c2ccc3ccccc3c2)cc1 | 28.3
N#Cc1ccc(Cn2cnnc2CN(CCc2ccc(Br)cc2)C(=O)c2ccc3c(c2)OCO3)cc1 | 61
N#Cc1ccc(Cn2cnnc2CN(CCc2ccc(Br)cc2)C(=O)c2ccc3ccccc3n2)cc1 | 26
N#Cc1ccc(Cn2cnnc2CN(CCc2ccc(Br)cc2)C(=O)c2cc3ccccc3s2)cc1 | 89.3

Stronger by IC50, values ahead:

IC50 [nM] | SMILES
2.2 | N#Cc1ccc(Cn2cnnc2CN(Cc2ccc(F)cc2F)C(=O)c2ccc3ccccc3c2)cc1
1.6 | N#Cc1ccc(Cn2cnnc2CN(Cc2ccc([N+](=O)[O-])cc2)C(=O)c2ccc3ccccc3n2)cc1
5.5 | N#Cc1ccc(Cn2cnnc2CN(Cc2ccc(F)cc2F)C(=O)c2ccc3ccccc3n2)nc1
5 | N#Cc1ccc(Cn2cnnc2CN(Cc2ccc(F)cc2)C(=O)c2ccc3ccccc3n2)cc1
0.9 | Cc1nnc(CN(Cc2ccc(F)cc2F)C(=O)c2ccc3ccccc3n2)n1Cc1ccc(C#N)cc1
3.5 | N#Cc1ccc(Cn2cnnc2CN(Cc2ccc(F)cc2F)C(=O)c2ccc3ccccc3n2)cc1
19 | N#Cc1ccc(Cn2cnnc2CN(CCc2ccc(F)cc2)C(=O)c2ccc3ccccc3n2)cc1

From ChEMBL document CHEMBL1141966, “Novel triazole based inhibitors of Ras farnesyl transferase” (Bioorg Med Chem Lett, 2005)
